Assay results taken from US20260356817A1, “AMINOPYRIMIDINE AND AMINOTRIAZINE DERIVATIVES AS MYC PROTEIN MODULATORS” (Sanford Burnham Prebys Medical Discovery Institute, priority 2022, published 2026).
Like-named read-outs stand apart in the source and are kept apart here.

Test system: Myc
Experiment: Myc inhibition assay: Myc expression per cell by anti-Myc immunofluorescence, high-content imaging
Type: cell-based, human (patient-derived medulloblastoma xenograft cells)
Settings: medulloblastoma PDX cells, 4 h
Summary of the method: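 Cells from Myc-driven medulloblastoma patient-derived orthotopic xenografts, propagated only in NSG mouse cerebellum, were dissociated and plated in serum-free medium. After overnight recovery, compounds were applied for 4 hours; cells were then fixed, stained for Myc and DAPI, and per-cell Myc quantified by high-content imaging to derive IC50.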

[1] = Table 1, read-out: IC50 (Myc inhibition)
[2] = Table 2, read-out: MYC Inhibition IC50

IC50 [1] [µM] | IC50 [2] [µM] | SMILES
1 to 10 | 1 to 10 | FC(F)(F)c1cccc(Nc2nccc(-c3cn4ccnc4cn3)n2)c1 [Compound 107, 4-(Imidazo[1,2-a]pyrazin-6-yl)-N-(3-(trifluoromethyl)phenyl)pyrimidin-2-amine]
< 0.2 | < 0.2 | CC(=O)c1cccc(Nc2nccc(-c3ccc4[nH]cnc4c3)n2)c1 [Compound 256, 1-(3-((4-(1H-benzo[d]imidazol-5-yl)pyrimidin-2-yl)amino)phenyl)ethan-1-one]
1 to 10 | 1 to 10 | COc1cc(-c2ccnc(Nc3cccc(OCCN)c3)n2)ccn1 [Compound 121, N-(3-(2-aminoethoxy)phenyl)-4-(2-methoxypyridin-4-yl)pyrimidin-2-amine]
0.2 to 1 | 0.2 to 1 | CN1CCN(c2cccc(Nc3nccc(-c4ccc5[nH]cnc5c4)n3)c2)CC1 [Compound 71, 4-(1H-benzo[d]imidazol-5-yl)-N-(3-(4-methylpiperazin-1-yl)phenyl)pyrimidin-2-amine]
1 to 10 | 1 to 10 | FC(F)(F)c1nnc(Nc2nccc(-c3ccc4[nH]cnc4c3)n2)s1 [Compound 58, N-(4-(1H-benzo[d]imidazol-5-yl)pyrimidin-2-yl)-5-(trifluoromethyl)-1,3,4-thiadiazol-2-amine]
0.2 to 1 | 0.2 to 1 | Cn1cc(Nc2nccc(-c3ccc4[nH]cnc4c3)n2)cn1 [Compound 77, 4-(1H-benzo[d]imidazol-5-yl)-N-(1-methyl-1H-pyrazol-4-yl)pyrimidin-2-amine]
< 0.2 | < 0.2 | Cc1cc(Cl)cc(Nc2nccc(-c3ccc4nc[nH]c4c3)n2)c1 [Compound 274, 4-(1H-benzo[d]imidazol-6-yl)-N-(3-chloro-5-methylphenyl)pyrimidin-2-amine]
1 to 10 | 1 to 10 | COc1cc(-c2ccnc(Nc3ccncc3)n2)ccn1 [Compound 197, 4-(2-methoxypyridin-4-yl)-N-(pyridin-4-yl)pyrimidin-2-amine]
< 0.2 | < 0.2 | Cn1cnc2cc(-c3ccnc(Nc4cccc(C(F)(F)F)c4)n3)ccc21 [Compound 95, 4-(1-methyl-1H-benzo[d]imidazol-5-yl)-N-(3-(trifluoromethyl)phenyl)pyrimidin-2-amine]
1 to 10 | 1 to 10 | O=C(O)c1cccc(Nc2nccc(-c3ccc4[nH]cnc4c3)n2)c1 [Compound 28, 3-((4-(1H-benzo[d]imidazol-5-yl)pyrimidin-2-yl)amino)benzoic acid]
< 0.2 | < 0.2 | CS(=O)(=O)c1cccc(Nc2nccc(-c3ccc4[nH]cnc4c3)n2)c1 [Compound 27, 4-(1H-benzo[d]imidazol-5-yl)-N-(3-(methylsulfonyl)phenyl)pyrimidin-2-amine]
10 to 100 | 10 to 100 | Fc1cccc(Nc2nccc(-c3cnc4[nH]ccc4c3)n2)c1 [Compound 169, N-(3-fluorophenyl)-4-(1H-pyrrolo[2,3-b]pyridin-5-yl)pyrimidin-2-amine]
10 to 100 | 10 to 100 | O=C(c1cccc(Nc2nccc(-c3ccc4[nH]cnc4c3)n2)c1)N1CCCC1 [Compound 17, (3-((4-(1H-benzo[d]imidazol-5-yl)pyrimidin-2-yl)amino)phenyl)(pyrrolidin-1-yl)methanone]
10 to 100 | 10 to 100 | Oc1cc(-c2ccnc(Nc3ccnc(C(F)(F)F)c3)n2)ccn1 [Compound 156, 4-(2-((2-(trifluoromethyl)pyridin-4-yl)amino)pyrimidin-4-yl)pyridin-2-ol]
10 to 100 | 10 to 100 | O=c1[nH]c2ccc(-c3ccnc(Nc4cccc(F)c4)n3)cc2[nH]1 [Compound 117, 5-(2-((3-fluorophenyl)amino)pyrimidin-4-yl)-1,3-dihydro-2H-benzo[d]imidazol-2-one]
1 to 10 | 1 to 10 | NC(=O)c1ccc(Nc2nccc(-c3ccc4[nH]cnc4c3)n2)cc1 [Compound 73, 4-((4-(1H-benzo[d]imidazol-5-yl)pyrimidin-2-yl)amino)benzamide]
1 to 10 | 1 to 10 | c1cc(Nc2nccc(-c3ccc4[nH]cnc4c3)n2)cc(N2CCNCC2)c1 [Compound 92, 4-(1H-benzo[d]imidazol-5-yl)-N-(3-(piperazin-1-yl)phenyl)pyrimidin-2-amine]
10 to 100 | 10 to 100 | COc1cc(-c2ccnc(Cc3ccccc3)n2)ccn1 [Compound 230, 2-Benzyl-4-(2-methoxypyridin-4-yl)pyrimidine]
1 to 10 | 1 to 10 | COc1ccc(-c2ccnc(Nc3cccc(F)c3)n2)s1 [Compound 176, N-(3-fluorophenyl)-4-(5-methoxythiophen-2-yl)pyrimidin-2-amine]
0.2 to 1 | 0.2 to 1 | CC(C)(C)n1cc(Nc2nccc(-c3ccc4nc[nH]c4c3)n2)cn1 [Compound 276, 4-(1H-benzo[d]imidazol-6-yl)-N-(1-(tert-butyl)-1H-pyrazol-4-yl)pyrimidin-2-amine]
< 0.2 | < 0.2 | O=C(Nc1cccc(Nc2nccc(-c3ccc4[nH]cnc4c3)n2)c1)c1ccccc1 [Compound 1, N-(3-((4-(1H-benzo[d]imidazol-5-yl)pyrimidin-2-yl)amino)phenyl)benzamide]

IC50 [1] [µM] | IC50 [2] [µM] | SMILES
1 to 10 | 1 to 10 | COc1cncc(-c2ccnc(Nc3ccccc3)n2)c1 [Compound 228, 4-(5-methoxypyridin-3-yl)-N-phenylpyrimidin-2-amine]
1 to 10 | 1 to 10 | Oc1cc(-c2ccnc(Nc3cccc(C(F)(F)F)c3)n2)ncn1 [Compound 131, 2′-((3-(trifluoromethyl)phenyl)amino)-[4,4′-bipyrimidin]-6-ol]
< 0.2 | < 0.2 | CNS(=O)(=O)c1cccc(Nc2nccc(-c3ccc4[nH]cnc4c3)n2)c1 [Compound 25, 3-((4-(1H-benzo[d]imidazol-5-yl)pyrimidin-2-yl)amino)-N-methylbenzenesulfonamide]
1 to 10 | 1 to 10 | COc1ccc(Oc2ccnc(Nc3cccc(C(F)(F)F)c3)n2)cn1 [Compound 109, 4-((6-methoxypyridin-3-yl)oxy)-N-(3-(trifluoromethyl)phenyl)pyrimidin-2-amine]
10 to 100 | 10 to 100 | COc1ccc(-c2ccnc(Nc3cccc(F)c3)n2)cn1 [Compound 214, N-(3-fluorophenyl)-4-(6-methoxypyridin-3-yl)pyrimidin-2-amine]
0.2 to 1 | 0.2 to 1 | Cc1cccc(Nc2nccc(-c3ccnc(O)c3)n2)c1 [Compound 159, 4-(2-(m-tolylamino)pyrimidin-4-yl)pyridin-2-ol]
0.2 to 1 | 0.2 to 1 | Oc1ncc(-c2ccnc(Nc3cccc(C(F)(F)F)c3)n2)s1 [Compound 144, 5-(2-((3-(trifluoromethyl)phenyl)amino)pyrimidin-4-yl)thiazol-2-ol]
< 0.2 | < 0.2 | FC(F)(F)c1cccc(Nc2cc(-c3ccc4nc[nH]c4c3)ccn2)n1 [Compound 281, N-(4-(1H-benzo[d]imidazol-6-yl)pyridin-2-yl)-6-(trifluoromethyl)pyridin-2-amine]
1 to 10 | 1 to 10 | Oc1ccc(Nc2nccc(-c3ccc4[nH]cnc4c3)n2)cn1 [Compound 29, 5-((4-(1H-benzo[d]imidazol-5-yl)pyrimidin-2-yl)amino)pyridin-2-ol]
< 0.2 | < 0.2 | Cc1cc(Nc2nccc(-c3cnc4nc[nH]c4c3)n2)ccc1F [Compound 135, N-(4-fluoro-3-methylphenyl)-4-(1H-imidazo[4,5-b]pyridin-6-yl)pyrimidin-2-amine]
< 0.2 | < 0.2 | CN(C)S(=O)(=O)c1cccc(Nc2nccc(-c3ccc4[nH]cnc4c3)n2)c1 [Compound 7, 3-((4-(1H-benzo[d]imidazol-5-yl)pyrimidin-2-yl)amino)-N,N-dimethylbenzenesulfonamide]
10 to 100 | 10 to 100 | COc1cccc(-c2ccnc(N(C)c3ccccc3)n2)n1 [Compound 227, 4-(6-methoxypyridin-2-yl)-N-methyl-N-phenylpyrimidin-2-amine]
10 to 100 | 10 to 100 | Oc1cc(-c2ccnc(Cc3ccccc3)n2)ccn1 [Compound 229, 4-(2-Benzylpyrimidin-4-yl)pyridin-2-ol]
10 to 100 | 10 to 100 | COc1cc(-c2ccnc(Oc3ccccc3)n2)ccn1 [Compound 235, 4-(2-methoxypyridin-4-yl)-2-phenoxypyrimidine]
< 0.2 | < 0.2 | Nc1cccc(Nc2nccc(-c3ccc4nc[nH]c4c3)n2)c1 [Compound 275, N1-(4-(1H-benzo[d]imidazol-6-yl)pyrimidin-2-yl)benzene-1,3-diamine]
1 to 10 | 1 to 10 | Oc1cncc(-c2ccnc(Nc3cccc(F)c3)n2)c1 [Compound 200, 5-(2-((3-fluorophenyl)amino)pyrimidin-4-yl)pyridin-3-ol]
1 to 10 | 1 to 10 | Fc1ccccc1Nc1nccc(-c2ccc3[nH]cnc3c2)n1 [Compound 66, 4-(1H-benzo[d]imidazol-5-yl)-N-(2-fluorophenyl)pyrimidin-2-amine]
1 to 10 | 1 to 10 | Oc1ccc(-c2ccnc(Nc3cc(F)ccn3)n2)nc1 [Compound 170, 6-(2-((4-fluoropyridin-2-yl)amino)pyrimidin-4-yl)pyridin-3-ol]
10 to 100 | 10 to 100 | Oc1cc(Nc2ccnc(Nc3cccc(F)c3)n2)ccn1 [Compound 118, 4-((2-((3-fluorophenyl)amino)pyrimidin-4-yl)amino)pyridin-2-ol]
0.2 to 1 | 0.2 to 1 | c1ccc2cc(Nc3nccc(-c4ccc5[nH]cnc5c4)n3)ccc2c1 [Compound 55, 4-(1H-benzo[d]imidazol-5-yl)-N-(naphthalen-2-yl)pyrimidin-2-amine]
10 to 100 | 10 to 100 | COc1cc(-c2ncnc(N(C)c3ccccc3)n2)ccn1 [Compound 216, 4-(2-methoxypyridin-4-yl)-N-methyl-N-phenyl-1,3,5-triazin-2-amine]
